Values joined by “and” are separate entries in the source; they are usually repeats but may differ in a detail not shown here. Identical values can stand only once.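 Step 1: Grow cells in 96-well plates. Step 2: Expose to compound for 48 hours at 5 concentrations. Step 3: Interpolate endpoints linearly; if unreached, use highest concentration. GI50 = concentration required for 50% inhibition of growth. TGI denotes the concentration required for complete inhibition of growth.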
Experiments:
Assay in all cases: inhibition of tumour cell growth, NCI panel, 48 h
[1] = tested on: RPMI-8226 leukemia
[2] = tested on: PC-3 prostate
[3] = tested on: U251 CNS
[4] = tested on: OVCAR-5 ovarian
[5] = tested on: SF-295 CNS
[6] = tested on: OVCAR-8 ovarian
[7] = tested on: CAKI-1 renal
[8] = tested on: SK-MEL-28 melanoma
[9] = tested on: EKVX NSCLC
[10] = tested on: SK-OV-3 ovarian

Compound	GI50 [1]	TGI [1]	GI50 [2]	TGI [2]	GI50 [3]	TGI [3]	GI50 [4]	TGI [4]	GI50 [5]	TGI [5]	GI50 [6]	TGI [6]	GI50 [7]	TGI [7]	GI50 [8]	TGI [8]	GI50 [9]	TGI [9]	TGI [10]	GI50 [10]
CCN(CC)CCn1c(=O)c2cc(OC)c(OC)cc2c2ccc3cc4c(cc3c21)OCO4	0.436 µM	4.56 µM	0.799 µM	99.7 µM	0.201 µM	18.6 µM	8.21 µM	36.1 µM	0.0907 µM	2.54 µM	0.922 µM	48.9 µM	0.222 µM	15.1 µM	12 µM	24.8 µM	12.2 µM	29.4 µM	–	–
C[C@]12CCc3nonc3C1CC[C@@H]1C2CC[C@@]2(C)C1CC[C@@H]2O (some centres undefined)	–	> 100 µM	–	–	–	> 100 µM	–	> 100 µM	–	> 100 µM	–	> 100 µM	–	> 100 µM	–	> 100 µM	–	> 100 µM	> 100 µM	–
CCOC(=O)c1c(-c2ccc(OC)c(O)c2)c(C#N)c(=S)n(C2OC(COC(C)=O)C(OC(C)=O)C(OC(C)=O)C2OC(C)=O)c1-c1ccccc1 (centres undefined)	36.5 µM and 6.1 µM	81.5 µM and > 100 µM	25 µM and > 100 µM	66.5 µM and > 100 µM	–	> 100 µM	–	> 100 µM	–	> 100 µM	–	> 100 µM	34.5 µM and > 100 µM	> 100 µM	32.5 µM and > 100 µM	> 100 µM	45.4 µM and > 100 µM	> 100 µM	–	–
O=C1c2ccccc2C(=O)c2c1oc1c2c(=O)[nH]c2ccc(Cl)cc21	0.387 µM	2.64 µM	0.182 µM	0.46 µM	0.268 µM	0.767 µM	3.44 µM	14.7 µM	0.637 µM	2.29 µM	0.389 µM	2.29 µM	–	–	0.339 µM	1.23 µM	0.249 µM	2.44 µM	1.78 µM	0.348 µM
COc1ccc(-c2cc(=O)c3cc(C)c(C)c(C(=O)O)c3o2)cc1	–	> 100 µM	–	–	–	> 100 µM	–	–	–	> 100 µM	–	> 100 µM	–	> 100 µM	–	> 100 µM	–	> 100 µM	> 100 µM	–
CN(C)CCN(C)C(=O)c1cccc2cccc(C(=O)O)c12	–	> 100 µM	–	–	–	> 100 µM	–	> 100 µM	–	> 100 µM	–	> 100 µM	–	–	–	> 100 µM	–	> 100 µM	> 100 µM	–
COc1ccc([Se][Se]c2ccc(OC)cc2OC)c(OC)c1	–	6.96 µM	–	–	–	–	–	–	–	4.03 µM	–	> 100 µM	–	18.6 µM	–	4.56 µM	–	–	76.5 µM	–
N#CC(C(=O)CCC(=O)Nc1cccc(C(F)(F)F)c1)c1ccccc1 (centres undefined)	–	> 100 µM	–	–	–	> 100 µM	–	> 100 µM	–	> 100 µM	–	> 100 µM	–	> 100 µM	–	> 100 µM	–	> 100 µM	–	–
COc1cc(/C=C2\NC(=O)C3Cc4c(OC)c(C)c(OC)c(OC)c4C2N3C)c(OC)c(C)c1OC (centres undefined)	–	–	–	–	–	> 100 µM	–	> 100 µM	–	> 100 µM	–	> 100 µM	–	> 100 µM	–	> 100 µM	–	> 100 µM	> 100 µM	–
Cc1[nH]c2ccccc2c1C1=NO/C(=N\O)C(c2c(C)[nH]c3ccccc23)C1 (centres undefined)	–	> 100 µM	–	–	–	> 100 µM	–	> 100 µM	–	> 100 µM	–	> 100 µM	–	> 100 µM	–	> 100 µM	–	> 100 µM	> 100 µM	–
O=S1(=O)c2cc(S(=O)(=O)n3ccnc3)ccc2NC2=NCCCN21	–	> 100 µM	–	–	–	41.5 µM	–	> 100 µM	–	> 100 µM	–	70 µM	–	> 100 µM	–	> 100 µM	–	> 100 µM	46.9 µM	–
COc1ccc(C2=NN(C(C)=O)C(c3ccc(Oc4ccnc5cc(Cl)ccc45)c(OC)c3)C2)cc1 (centres undefined)	> 100 µM	> 100 µM	–	–	4.51 µM	38.4 µM	> 100 µM	> 100 µM	5.02 µM	37.2 µM	3.63 µM	> 100 µM	> 100 µM	> 100 µM	–	–	51.7 µM	> 100 µM	42.9 µM	6.01 µM
CC(=O)NCc1c(C(N)=O)ncn1Cc1ccccc1	–	> 100 µM	–	–	–	> 100 µM	–	–	–	> 100 µM	–	> 100 µM	–	> 100 µM	–	> 100 µM	–	> 100 µM	> 100 µM	–
CCCCc1n(Cc2ccc3ccccc3n2)cc[n+]1Cc1ccc2ccccc2n1	0.295 µM	3.28 µM	1.51 µM	10.6 µM	0.925 µM	12.4 µM	2.66 µM	13.7 µM	2.45 µM	9.88 µM	2.73 µM	12 µM	–	–	1.05 µM	12.2 µM	2.58 µM	20.2 µM	7.23 µM	2 µM
COc1ccc(-c2oc3c(OC)c(OC)c(OC)c(O)c3c(=O)c2OC)cc1O	–	–	–	–	< 0.01 µM	0.898 µM and 0.23 µM	–	> 100 µM	–	21.2 µM	< 0.01 µM	> 100 µM	< 0.01 µM	> 100 µM	–	> 100 µM	0.317 µM	> 100 µM	0.783 µM and 0.419 µM	< 0.01 µM
C/C(CC(C)(C)N1CC1)=N\NC(=O)Nc1cccc2ccccc12	2.71 µM	8.74 µM	5.32 µM	23.2 µM	3.52 µM	14.4 µM	6.04 µM	23 µM	7.01 µM	35.5 µM	2.64 µM	13.4 µM	3.73 µM	13.2 µM	7.07 µM	19.8 µM	5.84 µM	19.9 µM	–	–
N#CC1(N2CCCC2)CCC2(CC1)OCCO2	–	> 100 µM	–	–	–	> 100 µM	–	> 100 µM	–	> 100 µM	–	> 100 µM	–	> 100 µM	–	> 100 µM	–	> 100 µM	> 100 µM	–
CO/C=C(\Br)c1ccc2c(c1)OCO2	–	–	–	–	–	> 100 µM	–	> 100 µM	–	> 100 µM	–	> 100 µM	–	> 100 µM	–	> 100 µM	–	> 100 µM	> 100 µM	–
COc1ccccc1NC(=O)C1=C(C)NC(C)=C(C(=O)Nc2ccccc2OC)C1c1ccccc1Cl	–	> 100 µM	–	–	–	> 100 µM	–	> 100 µM	–	> 100 µM	–	> 100 µM	–	> 100 µM	–	> 100 µM	–	> 100 µM	> 100 µM	–
